Experimental data published in ChEMBL document CHEMBL1141472, “Design, synthesis, and biological evaluation of 8-biarylquinolines: a novel class of PDE4 inhibitors” (Bioorg Med Chem Lett, 2008).

Legend:
Conditions in all cases: in vivo
[1] = (§1) Half life in rat; format: ADME, organism-based
[2] = Oral bioavailability in rat; format: ADME, organism-based
[3] = Cmax in squirrel monkey at 10 mg/kg; format: ADME, organism-based, Saimiri sciureus; set-up: dose 10 mg/kg
Rattus norvegicus = species: Rattus norvegicus; assay: as §1; format: ADME, organism-based
[4] = Cmax in squirrel monkey at 3 mg/kg; format: ADME, organism-based, Saimiri sciureus; set-up: dose 3 mg/kg

half-life [1] [h]	bioavailability [2] [%]	Cmax [3] [µM]	t1/2 (Rattus norvegicus) [h]	Cmax [4] [µM]	Structure (SMILES)
0.2	47				CC(=O)Nc1ccc(-c2cccc(-c3cc(C(C)(C)S(C)(=O)=O)cc4cccnc34)c2)c[n+]1[O-]
2	100	65			CC(C)(c1cc(-c2cccc(-c3ccc(C4CC4C(=O)O)cc3)c2)c2ncccc2c1)S(C)(=O)=O (single isomer, unassigned)
< 1	0				CC(C)(O)c1cc(-c2cccc(-c3cc(C(C)(C)S(C)(=O)=O)cc4cccnc34)c2)c[n+]([O-])c1
0.3	60				CC(C)(c1cc(-c2cccc(-c3ccc(CC(=O)O)cc3)c2)c2ncccc2c1)S(C)(=O)=O
2	54				CC(C)(c1cc(-c2cccc(-c3ccc(C(=O)O)cc3)c2)c2ncccc2c1)S(C)(=O)=O
			2		CC(C)(c1cc(-c2cccc(-c3ccc(C4CC4C(=O)O)cc3)c2)c2ncccc2c1)S(C)(=O)=O (single isomer, unassigned; enantiomer A)
1.2	76				CC(C)(c1cc(-c2cccc(-c3ccc[n+]([O-])c3)c2)c2ncccc2c1)S(C)(=O)=O
6.5	100				CC(C)(c1cc(-c2cccc(-c3ccc(C(=O)NC4CC4)[n+]([O-])c3)c2)c2ncccc2c1)S(C)(=O)=O
2	100				CC(C)(CC(=O)O)c1ccc(-c2cccc(-c3cc(C(C)(C)S(C)(=O)=O)cc4cccnc34)c2)cc1
0.7	11				CC(C)NC(=O)Nc1ccc(-c2cccc(-c3cc(C(C)(C)S(C)(=O)=O)cc4cccnc34)c2)c[n+]1[O-]
1.5	100			41	CC(C)(O)c1ccc(-c2cccc(-c3cc(C(C)(C)S(C)(=O)=O)cc4cccnc34)c2)c[n+]1[O-]
1.2	83				Cc1ccc(-c2cccc(-c3cc(C(C)(C)S(C)(=O)=O)cc4cccnc34)c2)c[n+]1[O-]
1	24				CC(C)(c1cc(-c2cccc(-c3ccc(CCC(=O)O)cc3)c2)c2ncccc2c1)S(C)(=O)=O
1.7	10				CC(C)(c1cc(-c2cccc(-c3ccc(CO)[n+]([O-])c3)c2)c2ncccc2c1)S(C)(=O)=O
< 1	0				CC(C)(c1cc(-c2cccc(-c3cc(C(=O)NC4CC4)c[n+]([O-])c3)c2)c2ncccc2c1)S(C)(=O)=O
		3.8			Cc1noc(/C(=C/c2cccc(-c3cc(C(C)(C)S(C)(=O)=O)cc4cccnc34)c2)c2ccc(S(C)(=O)=O)cc2)n1
